{
  "source": "patent US9856511B2",
  "about": "“Protease deubiquitinating inhibitor screening” (priority 2011, dated 2018)",
  "key": {"[1]": {"test_system": "HCT-116 Bcl-2+ colon carcinoma", "assay": "Disease free survival of nude mice challenged with HCT-116 Bcl-2+ cells", "format": "in vivo", "conditions": "5 mg/kg 4-5 times weekly for 3 weeks; log-rank P=0.0136", "procedure": "Animal experiments were conducted in full accordance with Swedish governmental statutory regulations on animal welfare under permission from local ethical committees. Animals were housed at a max of five per cage and provided with sterile water and food ad libitum. All mice were monitored and weighed daily. For the head and neck carcinoma model a 100-μl cell suspension containing 1×10^6 FaDu cells was injected subcutaneously into the right rear flank of the animals. After injection, tumor growth was measured daily with calipers and the tumor volume calculated by the formula […]. When tumors had grown to a size of approximately 200 mm^3 (Day 0) mice were randomized to receive either vehicle (n=10) or b-AP15 5 mg/kg^−1 by subcutaneous injection s.c. (n=15) daily. […] Nineteen days after malignant cell injection all of the mice were killed and histopathological manifestations of liver, ovary (target organs for this model of tumor) were evaluated and compared between groups. […]\nSCID mice bearing FaDu human tumor xenografts were randomized at tumor take (200 mm^3) and treated by daily subcutaneous injection with either vehicle (n=10) or 5 mg kg^−1 b-AP15 (n=15) for 10 days. […] Mice were treated with vehicle (n=6) or 5 mg kg^−1 b-AP15 (n=6) 4-5 times weekly for 3 weeks and monitored for tumor onset (log-rank, P=0.0136, hazard ratio=7.9). […]"}, "19S RP": {"target": "T1, 19S RP (Homo sapiens, UniProt P54578+Q9Y5K5)", "T1 construct": "purchased Boston Biochem E-366", "assay": "Ub-GFP cleavage assay with 19S RP", "format": "biochemical", "procedure": "To this end the ability of b-AP15 to inhibit cleavage of recombinant ubiquitin-GFP was assessed. Recombinant ubiquitin-GFP is a substrate for 19S RP DUB activity (22). […] The type of ubiquitin bonds present in the polyubiquitin chain determines the fate of an ubiquitin-modified substrate. K48 linked polyubiquitin chains generally targets conjoined proteins for degradation (23), whereas K63 linked chains are involved in non-proteolytic roles including DNA repair (24) and mitotic chromosome segregation (25). […] The inhibition of ubiquitin chain disassembly observed could account for the accumulation of high molecular weight ubiquitin conjugates in b-AP15 treated cells.\nThe recombinant Ub-GFP plasmid pet19b Ub-M-GFP was generated as described (42). In brief recombinant Ub-GFP was purified from BL21 E. coli cells by His affinity purification. For cleavage assays 19S RP (25 nM) was incubated with 10 mM NEM, 250 μM TPEN or 50 μM b-AP15 for 10 min followed by the addition of recombinant Ub-GFP (200 nM). […] The level of Ub-GFP cleavage or ubiquitin disassembly was determined by immunoblotting with anti ubiquitin antibodies. […] The cleavage of ubiquitinated Hdm2 substrate and ubiquitinated Hdm2 was determined by immunoblotting with anti-Hdm2 antibodies. […]"}},
  "data": [
    {"molecule": "C=CC(=O)N1C/C(=C\\c2ccc([N+](=O)[O-])cc2)C(=O)/C(=C/c2ccc([N+](=O)[O-])cc2)C1", "note": "[b-AP15]", "values": [
      {"measurement": "disease free survival (tumor onset), hazard ratio", "setting": "[1]", "value": 7.9},
      {"measurement": "cleavage of Ub-GFP by 19S RP", "setting": "19S RP", "value": "effectively inhibited"}
    ]}
  ]
}
